Tested on: r(CUG)^exp-containing nuclear foci
Test: Nuclear foci by fluorescence in situ hybridization (FISH) in DM1 patient derived fibroblasts
Format: cell-based
Conditions: 300 and 200 μM, 48 h; untreated cells ˜5
From the text: Bioactivity of 2GN8 was further assessed in DM1 patient derived fibroblasts for the disruption of nuclear foci. As observed in other microsatellite disorders, the binding of various proteins to r(CUG)^exp causes formation of nuclear foci.^(55) Fluorescence in situ hybridization (FISH) with a dye-labeled oligonucleotide was used to determine if 2GN8 disrupts r(CUG)^exp-containing nuclear foci. In untreated cells, the average number of foci per cell is ˜5. Treatment with 2GN8 reduces the average number of foci per cell to less than 1 at 300 and 200 μM (FIG. 11).
FISH was utilized to determine the effects of 2GN8 on the formation and disruption of nuclear foci. DM1 patient derived fibroblasts containing 500 CTG repeats (GM03987) were grown to ˜80% confluence in a Mat-Tek 96-well glass bottom plate in growth medium. Cells were treated with 2GN8 (300, 200 and 100 μM) for 48 h in growth medium followed by FISH as previously described(63) using 1 ng/μL DY547-2′OMe-(CAG)6. Immunostaining of MBNL1 was completed as previously described(65) using the MB1a antibody (diluted 1:4), which was generously supplied by Prof. […]

N=C(N)Nc1ccc2nc(-c3ccc(-c4nc5ccc(NC(=N)N)cc5[nH]4)cc3)[nH]c2c1 [Compound 2GN8]
average number of foci per cell: less than 1

Reference: patent US20180296532A1, “RNA-Focused Small Molecules for Inhibiting RNA Toxicity in Myotonic Dystrophy” (The Scripps Research Institute, priority 2015, published 2018)
